Patent US20230220001A1, “METHOD FOR SYNTHESIS OF THIOETHER-[…]” ([…] RESEARCH GMBH, priority 2020, published 2023)
Starred links: 1 amine or outer side, 2 acyl side, 3 side chain; linkers in the order of their positions; H or OH if unused. Positions of bridges follow the written chain, without caps; N, C: chain ends. Non-standard residues stand in square brackets, D forms with d. Residues, ends and D or L forms follow the SMILES beside them. Trp(2-yl) = O=C([C@H](Cc1c([*:3])[nH]c2ccccc12)N[*:1])[*:2]; Ile(4R-OH,5-OH) = C[C@H]([C@H](N)C(=O)O)[C@@H](O)CO; Pro(4,4-F2) = O=C(O)[C@@H]1CC(F)(F)CN1; Hyp = O=C(O)[C@@H]1C[C@@H](O)CN1; Tle = CC(C)(C)[C@H](N)C(=O)O; Aze = O=C(O)[C@@H]1CCN1; Ac3c = NC1(C(=O)O)CC1; Aib = CC(C)(N)C(=O)O; Sar = CNCC(=O)O

What was measured:
[1] = Cell viability assay (BrdU incorporation) on HEK293 cells; type: cell-based; settings: human, wildtype HEK293 cells, 96 h drug exposure, read-out: Cytotoxicity on HEK-293 cells EC50
Experimental: (§1) Cytotoxicity of compounds of the invention was assessed using an RNA Polymerase II inhibition assay and by assessing cytotoxicity in a cell viability assay on HEK cells and HEK-OATP1 B3 cells, the results of which are depicted in Table 6.
(§2) Cell Viability Assay (HEK and HEK-OATP1B3 Cells)
(§3) The in vitro toxicity of the inventive compounds was determined in Human embryonic kidney HEK293 cells and in HEK293-OATP1B3 cells that overexpress the organic anion-transporting polypeptide […] (OATP1B3) to assess whether OATP1 B3 mediates active transport of amanitin analogues into the cell. Wildtype HEK293 (ATCC, Manassas, Va.) and HEK293-OATP1 B3 cells (see: Pahl et al., Cytotoxic Payloads for Antibody-Drug Conjugates In: Amatoxins as RNA Polymerase II Inhibiting Antibody-Drug Conjugate (ADC) Payloads CHAPTER 19, The Royal Society of Chemistry 2019, ISBN: 978-1-78801-077-1, or e.g. Bowman et al. Drug Metab Dispos 48:18-24, January 2020) were incubated with compound 7f (α-amanitin) or the compounds as disclosed in Table 6. Cytotoxicity was determined by a BrdU assay. HEK293 and HEK-OATP1B3 cells were plated at 2.5×10^3 cells/well in a 1:1 mixture of Ham's F12 with DMEM containing 10% charcoal-stripped FCS onto poly-D-lysine-coated 96-well plates and grown for 24 hours. Subsequently, cells were incubated with amanitin derivatives at 8 different concentrations (1×10^−6 M to 1.28×10^−11 M, serial 1:5 dilutions). Following 96 h of drug exposure, cell viability was determined by a BrdU incorporation assay (Cell Proliferation ELISA, BrdU, Roche) and chemiluminescence was measured using a FLUOstar Optima plate reader (BMG LABtech). Data analysis was performed with GraphPad Prism 9.0 (GraphPad Software, Inc., La Jolla, Calif.) software to plot curve fits.

RNA Polymerase II = biological target: T1, RNA Polymerase II (Homo sapiens, UniProt P24928); experiment: RNA Polymerase II assay (HeLaScribe nuclear extract in vitro transcription system, RT-PCR quantification of mRNA); type: biochemical; settings: for residual RNAP II activity at highest concentration tested: highest concentration tested (range up to 1×10^−6 M)
T1 construct: HeLaScribe® Nuclear extract in vitro transcription system (Promega, #E3092); host or cells: HeLa nuclear extract (purchased)
Experimental: as §1
The in vitro RNA Pol II assay was done using a HeLaScribe® Nuclear extract in vitro transcription system (Promega, #E3092) was used to compare the inhibitory effect of amanitin analogues on RNA Pol at seven concentrations from 6.4×10^−11 M to 1×10^−6 M (serial 1:5 dilutions). As positive control, template run-off transcripts from a CMV immediate early promoter were used (Promega, #E3092). Reverse transcription was followed by real time-PCR for the quantification of the mRNA product. RNA detection was performed using a QuantiFast Probe RT-PCR Plus Kit (Qiagen). The PCR product was monitored by determination of fluorescence on a Real Time PCR CFX Connect Real Time System (Bio-Rad Laboratories Inc.). α-amanitin, analogues and untreated control were each analyzed in triplicates. Negative control, positive control and no target control were analyzed in duplicates. The ACT method was used to calculate the inhibitory effect of the test item on transcription normalized to the untreated control.

OATP1B3 = experiment: Cell viability assay (BrdU incorporation) on HEK293-OATP1B3 cells overexpressing OATP1B3; type: cell-based; settings: human, HEK293-OATP1B3 cells (overexpress OATP1B3), 96 h drug exposure, read-out: Cytotoxicity on HEK-OATP1B3 cells EC50
Experimental: as §1, §2, §3

[2] = slow acting toxin; T. Wieland 1986; cited from earlier work

SMILES: CC[C@H](C)[C@@H]1NC(=O)CNC(=O)[C@@H]2Cc3c([nH]c4ccccc34)SC[C@H](NC(=O)CNC1=O)C(=O)N[C@@H](CC(N)=O)C(=O)N1C[C@H](O)C[C@H]1C(=O)N[C@@H]([C@@H](C)[C@@H](O)CO)C(=O)N2 [Compound 7d] (cyclo(CN[Hyp][Ile(4R-OH,5-OH)][Trp(2-yl)]GIG); thioether 1-5)
- EC50 at 96 h [1]: 81 nM
- IC50 (RNA Polymerase II): 6.8 nM
- EC50 at 96 h (OATP1B3): 0.23 nM

SMILES: C[C@H]([C@@H]1NC(=O)[C@@H]2C[C@@H](O)CN2C(=O)[C@H](CC(N)=O)NC(=O)[C@@H]2CSc3[nH]c4ccccc4c3C[C@H](NC1=O)C(=O)NCC(=O)N[C@@H](C(C)(C)C)C(=O)NCC(=O)N2)[C@@H](O)CO [Compound 7p] (cyclo(CN[Hyp][Ile(4R-OH,5-OH)][Trp(2-yl)]G[Tle]G); thioether 1-5)
- EC50 at 96 h [1]: > 1000 nM
- IC50 (RNA Polymerase II): 25 nM
- EC50 at 96 h (OATP1B3): 16 nM

SMILES: CC[C@H](C)[C@@H]1NC(=O)CNC(=O)[C@@H]2Cc3c([nH]c4cc(O)ccc34)[S@+]([O-])C[C@H](NC(=O)CNC1=O)C(=O)N[C@@H](CC(N)=O)C(=O)N1C[C@H](O)C[C@H]1C(=O)N[C@@H]([C@@H](C)[C@@H](O)CO)C(=O)N2 [Compound 7f, Alpha-amanitin, reference compound]
- EC50 at 96 h [1]: 210 nM
- IC50 (RNA Polymerase II): 2.7 nM
- LD50 [2]: 0.05 to 0.1 mg/kg
- EC50 at 96 h (OATP1B3): 5.2 nM

SMILES: CC[C@H](C)[C@@H]1NC(=O)CNC(=O)[C@@H]2Cc3c([nH]c4ccccc34)SC[C@H](NC(=O)[C@@H](C)NC1=O)C(=O)N[C@@H](CC(N)=O)C(=O)N1C[C@H](O)C[C@H]1C(=O)N[C@@H]([C@@H](C)[C@@H](O)CO)C(=O)N2 [Compound 7o] (cyclo(CN[Hyp][Ile(4R-OH,5-OH)][Trp(2-yl)]GI[dA]); thioether 1-5)
- EC50 at 96 h [1]: > 1000 nM
- IC50 (RNA Polymerase II): 1.4 nM
- EC50 at 96 h (OATP1B3): 28 nM

SMILES: CC[C@H](C)[C@@H]1NC(=O)CNC(=O)[C@@H]2Cc3c([nH]c4ccccc34)SC[C@H](NC(=O)C(C)(C)NC1=O)C(=O)N[C@@H](CC(N)=O)C(=O)N1C[C@H](O)C[C@H]1C(=O)N[C@@H]([C@@H](C)[C@@H](O)CO)C(=O)N2 [Compound 7m] (cyclo([Aib]CN[Hyp][Ile(4R-OH,5-OH)][Trp(2-yl)]GI); thioether 2-6)
- EC50 at 96 h [1]: > 1000 nM
- IC50 (RNA Polymerase II): 71 nM
- residual RNAP II activity at highest concentration tested (RNA Polymerase II): 15%
- EC50 at 96 h (OATP1B3): 120 nM

SMILES: CC[C@H](C)[C@@H]1NC(=O)CNC(=O)[C@@H]2Cc3c([nH]c4ccccc34)SC[C@H](NC(=O)CNC1=O)C(=O)N[C@@H](CC(N)=O)C(=O)N1CC[C@H]1C(=O)N[C@@H]([C@@H](C)[C@@H](O)CO)C(=O)N2 [Compound 7n] (cyclo([Aze][Ile(4R-OH,5-OH)][Trp(2-yl)]GIGCN); thioether 3-7)
- EC50 at 96 h [1]: > 1000 nM
- IC50 (RNA Polymerase II): 160 nM
- residual RNAP II activity at highest concentration tested (RNA Polymerase II): 40%
- EC50 at 96 h (OATP1B3): > 100 nM

SMILES: CC[C@H](C)[C@@H]1NC(=O)CNC(=O)[C@@H]2Cc3c([nH]c4ccccc34)SC[C@H](NC(=O)CN(C)C1=O)C(=O)N[C@@H](CC(N)=O)C(=O)N1C[C@H](O)C[C@H]1C(=O)N[C@@H]([C@@H](C)[C@@H](O)CO)C(=O)N2 [Compound 7l] (cyclo(CN[Hyp][Ile(4R-OH,5-OH)][Trp(2-yl)]GI[Sar]); thioether 1-5)
- EC50 at 96 h [1]: > 1000 nM
- IC50 (RNA Polymerase II): 15 nM
- residual RNAP II activity at highest concentration tested (RNA Polymerase II): 10%
- EC50 at 96 h (OATP1B3): 29 nM

SMILES: CC[C@H](C)[C@@H]1NC(=O)CNC(=O)[C@@H]2Cc3c([nH]c4ccccc34)SC[C@H](NC(=O)CNC1=O)C(=O)N[C@@H](CC(N)=O)C(=O)N1CC(F)(F)C[C@H]1C(=O)N[C@@H]([C@@H](C)[C@@H](O)CO)C(=O)N2 [Compound 7q] (cyclo(CN[Pro(4,4-F2)][Ile(4R-OH,5-OH)][Trp(2-yl)]GIG); thioether 1-5)
- EC50 at 96 h [1]: > 1000 nM
- IC50 (RNA Polymerase II): 110 nM
- residual RNAP II activity at highest concentration tested (RNA Polymerase II): 10%
- EC50 at 96 h (OATP1B3): 49 nM

SMILES: CC[C@H](C)[C@@H]1NC(=O)CNC(=O)[C@@H]2Cc3c([nH]c4ccccc34)SC[C@H](NC(=O)C3(CC3)NC1=O)C(=O)N[C@@H](CC(N)=O)C(=O)N1C[C@H](O)C[C@H]1C(=O)N[C@@H]([C@@H](C)[C@@H](O)CO)C(=O)N2 [Compound 7r] (cyclo([Ac3c]CN[Hyp][Ile(4R-OH,5-OH)][Trp(2-yl)]GI); thioether 2-6)
- EC50 at 96 h [1]: > 1000 nM
- IC50 (RNA Polymerase II): 26 nM
- EC50 at 96 h (OATP1B3): 10 nM

SMILES: CC[C@H](C)[C@@H]1NC(=O)CNC(=O)[C@@H]2Cc3c([nH]c4ccccc34)SC[C@H](NC(=O)[C@H]3CCCN3C1=O)C(=O)N[C@@H](CC(N)=O)C(=O)N1C[C@H](O)C[C@H]1C(=O)N[C@@H]([C@@H](C)[C@@H](O)CO)C(=O)N2 [Compound 7i] (cyclo(CN[Hyp][Ile(4R-OH,5-OH)][Trp(2-yl)]GI[dP]); thioether 1-5)
- EC50 at 96 h [1]: > 1000 nM
- IC50 (RNA Polymerase II): 12 nM
- residual RNAP II activity at highest concentration tested (RNA Polymerase II): 20%
- EC50 at 96 h (OATP1B3): 210 nM
